For this test, the system named is enzyme dehydroxylating the hydroxyl group at the 9-position of urolithins. Put plainly: Effect of cofactor on enzyme activity (DEAE fraction). The format is biochemical, Clostridium bolteae JCM 12243 strain. Conditions: for Relative activity: control without cofactor = 100%, DEAE fraction; for Effect of cofactor on enzyme activity: cofactor individually added. The protocol: A 100 mM Gly/NaOH buffer (pH 9.5) containing 0.05 mg/mL of urolithin C, 5 mM of NADH, and 1 μM of DTT was mixed with a reaction solution for measuring the enzyme activity of each fraction corresponding to 40 mL of the medium to give a total volume of 500 μL, and the mixture was placed in a 1.5-mL tube. A gas phase in an anaerobic chamber was used as a gas phase (Vinyl Anaerobic Chamber available from Coy Labs), and the mixture was reacted at 45° C. for 13 to 18 hours. After completion of the reaction, 200 μL of N,N-dimethylacetamide containing 10% -formic acid was added and mixed. Then, the mixture was centrifuged (10,000 rpm. 4° C., 3 minutes), and the resulting supernatant was analyzed by HPLC.
Solutions were prepared to contain a cofactor in a concentration as shown in Table 2 in the reaction solution for measuring the enzyme activity described in Experimental Example 5, and urolithin A produced after the reaction was quantified. The DEAE fraction was used as the enzyme.
In addition, FAD refers to flavin adenine dinucleotide.

Molecules are shown by their SMILES.

On to `Cc1cc2nc3c(=O)[nH]c(=O)nc-3n(C[C@H](O)[C@H](O)[C@H](O)COP(=O)(O)OP(=O)(O)OC[C@H]3O[C@@H](n4cnc5c(N)ncnc54)[C@H](O)[C@@H]3O)c2cc1C` [No. 4, flavin adenine dinucleotide], for which the Relative activity (one cofactor at 0.2 mM) is 95%.

Regarding `NC(=O)C1=CN([C@@H]2O[C@H](COP(=O)(O)OP(=O)(O)OC[C@H]3O[C@@H](n4cnc5c(N)ncnc54)[C@H](O)[C@@H]3O)[C@@H](O)[C@H]2O)C=CC1` [No. 2, reduced nicotinamide adenine dinucleotide], the “Effect of cofactor on enzyme activity” value is recorded as “Increase in activity”. The Relative activity (one cofactor at 10 mM) was determined as 186%.

In the case of `NC(=O)C1=CN([C@@H]2O[C@H](COP(=O)(O)OP(=O)(O)OC[C@H]3O[C@@H](n4cnc5c(N)ncnc54)[C@H](OP(=O)(O)O)[C@@H]3O)[C@@H](O)[C@H]2O)C=CC1` [No. 3, reduced nicotinamide adenine dinucleotide phosphate], the “Effect of cofactor on enzyme activity” value is “Increase in activity”. Also, the Relative activity (one cofactor at 10 mM) was 161%.

Consider `Cc1cc2nc3c(=O)[nH]c(=O)nc-3n(C[C@H](O)[C@H](O)[C@H](O)COP(=O)(O)O)c2cc1C` [No. 5, flavin mononucleotide], for which the Relative activity (one cofactor at 0.2 mM) is given as 96%.
